Test results published in PMC5908784, “Extracellular loops 2 and 3 of the calcitonin receptor selectively modify agonist binding and efficacy” (Biochemical Pharmacology, 2018).
Numbering of substitutions follows the chain as printed. Where a SMILES comes first, the peptide text is derived from it. Bridges are numbered along the chain shown (N, C = ends).

What was measured:
Assay in all cases: cAMP accumulation
Assay type in all cases: cell-based
Settings in all cases: mean ± S.E.M.; for Emax: cAMP maximal response, SEM; for EC50: cAMP, CV1-FlpIn cells, 30 min, IBMX
hCTR N288A = target: T1, hCTR N288A (Homo sapiens, UniProt P30988, N288A)
T1 construct: expressed in transfected cells
T1 sequence (P30988 25-474 N288A): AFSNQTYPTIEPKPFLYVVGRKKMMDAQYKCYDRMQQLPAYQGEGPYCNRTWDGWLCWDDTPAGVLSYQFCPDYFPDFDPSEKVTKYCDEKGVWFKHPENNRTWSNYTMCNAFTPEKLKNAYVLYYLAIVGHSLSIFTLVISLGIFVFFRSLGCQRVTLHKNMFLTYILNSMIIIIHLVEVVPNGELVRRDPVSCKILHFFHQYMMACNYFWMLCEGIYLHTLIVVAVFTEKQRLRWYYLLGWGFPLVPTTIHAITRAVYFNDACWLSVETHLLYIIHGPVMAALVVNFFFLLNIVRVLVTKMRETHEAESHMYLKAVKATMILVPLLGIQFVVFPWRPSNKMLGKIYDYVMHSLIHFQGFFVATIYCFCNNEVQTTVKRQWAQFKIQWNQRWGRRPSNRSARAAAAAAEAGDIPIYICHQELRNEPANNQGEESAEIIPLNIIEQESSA
Procedure, shortened: (§1)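 Cells expressing the receptor mutant were seeded overnight, then stimulated with increasing ligand concentrations for 30 min in the presence of IBMX. After ethanol extraction and drying at room temperature, cAMP was measured and normalized to the 100 μM forskolin response. EC50 and Emax came from 3-parameter logistic fits.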

hCTR E294A = target: T2, hCTR E294A (Homo sapiens, UniProt P30988, E294A)
T2 construct: c-Myc (N); expressed in transfected cells
T2 sequence (P30988 25-474 E294A): T1 sequence (P30988 25-474 N288A) with A264N, E270A
Procedure, shortened: as §1

hCTR G369A = target: T3, hCTR G369A (Homo sapiens, UniProt P30988, G369A)
T3 construct: c-Myc (N); expressed in transfected cells
T3 sequence (P30988 25-474 G369A): T1 sequence (P30988 25-474 N288A) with A264N, G345A
Procedure, shortened: as §1

hCTR P363A = target: T4, hCTR P363A (Homo sapiens, UniProt P30988, P363A)
T4 construct: expressed in transfected cells
T4 sequence (P30988 25-474 P363A): T1 sequence (P30988 25-474 N288A) with A264N, P339A
Procedure, shortened: as §1

hCTR Y299A = target: T5, hCTR Y299A (Homo sapiens, UniProt P30988, Y299A)
T5 construct: c-Myc (N); expressed in transfected cells
T5 sequence (P30988 25-474 Y299A): T1 sequence (P30988 25-474 N288A) with A264N, Y275A
Procedure, shortened: as §1

SMILES | Emax (hCTR N288A) [%] | Emax (hCTR E294A) [%] | Emax (hCTR G369A) [%] | Emax (hCTR P363A) [%] | Emax (hCTR Y299A) [%] | EC50 (hCTR N288A) [nM] | EC50 (hCTR E294A) [nM] | EC50 (hCTR G369A) [nM] | EC50 (hCTR P363A) [nM] | EC50 (hCTR Y299A) [nM]
CC(C)C[C@H](NC(=O)[C@H](CC(N)=O)NC(=O)[C@H](CC(N)=O)NC(=O)[C@H](CO)NC(=O)[C@H](CO)NC(=O)[C@H](CCCNC(=N)N)NC(=O)[C@@H](NC(=O)[C@H](CC(C)C)NC(=O)[C@H](Cc1ccccc1)NC(=O)[C@H](CC(N)=O)NC(=O)[C@H](C)NC(=O)[C@H](CC(C)C)NC(=O)[C@H](CCCNC(=N)N)NC(=O)[C@H](CCC(N)=O)NC(=O)[C@@H](NC(=O)[C@H](C)NC(=O)[C@@H]1CSSC[C@H](NC(=O)[C@@H](N)CCCCN)C(=O)N[C@@H](CC(N)=O)C(=O)N[C@@H]([C@@H](C)O)C(=O)N[C@@H](C)C(=O)N[C@@H]([C@@H](C)O)C(=O)N1)[C@@H](C)O)C(C)C)C(=O)NCC(=O)N1CCC[C@H]1C(=O)N[C@H](C(=O)N[C@@H](CC(C)C)C(=O)N1CCC[C@H]1C(=O)N1CCC[C@H]1C(=O)N[C@H](C(=O)N[C@@H](CC(N)=O)C(=O)N[C@H](C(=O)NCC(=O)N[C@@H](CO)C(=O)N[C@@H](CC(N)=O)C(=O)N[C@H](C(=O)N[C@@H](Cc1ccc(O)cc1)C(N)=O)[C@@H](C)O)C(C)C)[C@@H](C)O)C(C)C [rAmy] | 64 ± 8 | 90 ± 9 | 78 ± 6 | 94 ± 20 | 102 ± 1 | – | – | – | – | –
CC[C@H](C)[C@H](NC(=O)[C@H](C)NC(=O)[C@@H](NC(=O)[C@H](CCC(N)=O)NC(=O)[C@@H]1CCCN1C(=O)[C@H](Cc1ccccc1)NC(=O)[C@@H](NC(=O)[C@H](Cc1c[nH]cn1)NC(=O)[C@H](Cc1ccccc1)NC(=O)[C@H](CCCCN)NC(=O)[C@H](CC(N)=O)NC(=O)[C@H](Cc1ccccc1)NC(=O)[C@H](CC(=O)O)NC(=O)[C@H](CCC(N)=O)NC(=O)[C@@H](NC(=O)[C@H](Cc1ccc(O)cc1)NC(=O)[C@@H](NC(=O)CNC(=O)[C@H](CC(C)C)NC(=O)[C@H](CCSC)NC(=O)[C@@H]1CSSC[C@H](N)C(=O)NCC(=O)N[C@@H](CC(N)=O)C(=O)N[C@@H](CC(C)C)C(=O)N[C@@H](CO)C(=O)N[C@@H]([C@@H](C)O)C(=O)N1)[C@@H](C)O)[C@@H](C)O)[C@@H](C)O)[C@@H](C)O)C(=O)NCC(=O)N[C@H](C(=O)NCC(=O)N[C@@H](C)C(=O)N1CCC[C@H]1C(N)=O)C(C)C [hCT] | 117 ± 10 | 105 ± 5 | 129 ± 9 | 111 ± 5 | 133 ± 9 | – | – | – | – | –
CC(C)C[C@H](NC(=O)CNC(=O)[C@H](C)NC(=O)[C@H](CC(C)C)NC(=O)[C@H](CCCNC(=N)N)NC(=O)[C@H](Cc1cnc[nH]1)NC(=O)[C@@H](NC(=O)[C@@H](NC(=O)[C@@H]1CSSC[C@H](NC(=O)[C@H](C)N)C(=O)N[C@@H](CC(=O)O)C(=O)N[C@@H]([C@@H](C)O)C(=O)N[C@@H](C)C(=O)N[C@@H]([C@@H](C)O)C(=O)N1)C(C)C)[C@@H](C)O)C(=O)N[C@@H](CC(C)C)C(=O)N[C@@H](CO)C(=O)N[C@@H](CCCNC(=N)N)C(=O)N[C@@H](CO)C(=O)NCC(=O)NCC(=O)N[C@H](C(=O)N[C@H](C(=O)N[C@@H](CCCCN)C(=O)N[C@@H](CC(N)=O)C(=O)N[C@@H](CC(N)=O)C(=O)N[C@@H](Cc1ccccc1)C(=O)N[C@H](C(=O)N1CCC[C@H]1C(=O)N[C@H](C(=O)N[C@@H](CC(N)=O)C(=O)N[C@H](C(=O)NCC(=O)N[C@@H](CO)C(=O)N[C@@H](CCCCN)C(=O)N[C@@H](C)C(=O)N[C@@H](Cc1ccccc1)C(N)=O)C(C)C)[C@@H](C)O)C(C)C)C(C)C)C(C)C [hαCGRP] | 118 ± 17 | 137 ± 31 | 131 ± 20 | 38 ± 7 | 62 ± 16 | 10.2 | 49 | 24.5 | 38.9 | 33.1
CC(C)C[C@H](NC(=O)[C@H](CCCCN)NC(=O)CNC(=O)[C@H](CC(C)C)NC(=O)[C@@H](NC(=O)[C@@H]1CSSC[C@H](N)C(=O)N[C@@H](CO)C(=O)N[C@@H](CC(N)=O)C(=O)N[C@@H](CC(C)C)C(=O)N[C@@H](CO)C(=O)N[C@@H]([C@@H](C)O)C(=O)N1)C(C)C)C(=O)N[C@@H](CO)C(=O)N[C@@H](CCC(N)=O)C(=O)N[C@@H](CCC(=O)O)C(=O)N[C@@H](CC(C)C)C(=O)N[C@@H](Cc1c[nH]cn1)C(=O)N[C@@H](CCCCN)C(=O)N[C@@H](CC(C)C)C(=O)N[C@@H](CCC(N)=O)C(=O)N[C@H](C(=O)N[C@@H](Cc1ccc(O)cc1)C(=O)N1CCC[C@H]1C(=O)N[C@@H](CCCNC(=N)N)C(=O)N[C@H](C(=O)N[C@@H](CC(N)=O)C(=O)N[C@H](C(=O)NCC(=O)N[C@@H](CO)C(=O)NCC(=O)N[C@H](C(=O)N1CCC[C@H]1C(N)=O)[C@@H](C)O)[C@@H](C)O)[C@@H](C)O)[C@@H](C)O [sCT] | 69 ± 5 | 98 ± 9 | 106 ± 8 | 111 ± 9 | 110 ± 7 | – | – | – | – | –
CSCC[C@H](NC(=O)CNC(=O)[C@H](CO)NC(=O)[C@H](Cc1ccccc1)NC(=O)[C@H](CCCNC(=N)N)NC(=O)[C@H](Cc1c[nH]cn1)NC(=O)[C@H](Cc1ccccc1)NC(=O)[C@H](CC(N)=O)NC(=O)[C@H](CC(N)=O)NC(=O)[C@H](CC(C)C)NC(=O)[C@H](CC(N)=O)NC(=O)[C@H](CCCNC(=N)N)NC(=O)[C@H](Cc1c[nH]c2ccccc12)NC(=O)[C@H](Cc1ccc(O)cc1)NC(=O)[C@H](C)NC(=O)[C@H](CO)NC(=O)[C@H](CC(C)C)NC(=O)[C@@H](NC(=O)[C@@H]1CSSC[C@H](N)C(=O)N[C@@H](CO)C(=O)N[C@@H](CC(N)=O)C(=O)N[C@@H](CC(C)C)C(=O)N[C@@H](CO)C(=O)N[C@@H]([C@@H](C)O)C(=O)N1)C(C)C)C(=O)NCC(=O)N[C@@H](Cc1ccccc1)C(=O)NCC(=O)N1CCC[C@H]1C(=O)N[C@@H](CCC(=O)O)C(=O)N[C@H](C(=O)N1CCC[C@H]1C(N)=O)[C@@H](C)O [pCT] (H-CSNLSTCVLSAYWRNLNNFHRFSGMGFGPETP-NH2; disulfide 1-7) | 105 ± 10 | 105 ± 6 | 89 ± 7 | 148 ± 15 | 117 ± 9 | 0.0631 | 0.0398 | 0.204 | 0.389 | 0.135
